Marks after values point to notes of the source that are not given here.

Format in all cases: binding, human
Assay [1] has as its system anti-citrullinated protein autoantibodies (ACPAs). Put plainly: ELISA of reactive citrullinated fibrin peptides with the 20 individual sera of mixtures A and B. The note with it: for delta OD: best coating buffer per peptide. As to the method: The 14 peptides carrying the most reactive epitopes (delta OD≧0.5 for one or other of the mixtures of serum (A and B) with at least one of the three coating buffers) were tested independently with the 20 sera constituting the mixtures A and B, in order to evaluate the reactivity profile of each of these peptides. The tests were carried out by ELISA under the same conditions as in Example 2 above, with the exception that, for each pair of peptides, the coating buffer selected was that that had made it possible to obtain the strongest reactivity with respect to this peptide during the screening (the buffer for which the sum of the delta ODs obtained respectively for the serum mixtures A and B was at a maximum). […] Thus, for each serum, the dilution that made it possible to obtain an OD of 1 by ELISA on deiminated fibrinogen was selected (Nogueira L, 2002, mentioned above). The dilutions ranged from 1/20 to 1/2700.

Assay [2] has the same test system. Description: ELISA of citrullinated/native fibrin peptide pairs with serum mixtures A and B and control mixture (delta OD). The note with it: mean of two determinations. Here is the method:
Each pair of peptides (citrullinated and noncitrullinated) was assayed by ELISA with a mixture, in equal parts, of 10 sera having no ACPAs (control mixture) and with the 2 mixtures A and B described in Example 1.
Each pair of peptides (native and citrullinated form) was tested on the same plate and a pair of control peptides—citrullinated “filaggrin” peptide cfc6 and its corresponding native peptide cf0 (Schellekens G A, 1998, mentioned above)—was included in each experiment, which made it possible to calculate an inter-assay coefficient of variation and to perform corrections.
All the incubations were carried out for 1 h at 4° C. and were followed by washing in PBS-0.1% Tween. The peroxidase activity was visualized with a solution of ortho-phenylenediamine (2 mg/ml—Sigma) in hydrogen peroxide (0.03%—Sigma). The reaction was stopped after 5 minutes by adding 4M sulfuric acid, and the optical density (OD) at 492 nm was measured by virtue of an automatic spectrophotometer (Multiskan, Thermo Labsystems).
The specific reactivity of the mixtures of sera with regard to the citrullinated peptides corresponded to the difference between the OD obtained with the citrullinated peptide and that obtained with the corresponding native peptide (delta OD). The results correspond to the mean of two determinations. Any citrullinated peptide making it possible to obtain a delta OD of greater than 0.250 for at least one of the two mixtures A and B after coating in at least one of the three buffers, was considered to be reactive.

The test system is the same in assay [3]. Description: ELISA comparing amidated and nonamidated β60-74Cit60,72,74 with serum mixtures A and B. Particulars: for delta OD: coating in PBS, versus noncitrullinated β60-74, mean of two experiments. The text has this: ELISA plates were coated with the peptide β60-74Cit60,72,74, in which the C-terminal function of the carboxy-terminal citrullyl residue is not amidated (form carrying a terminal COOH function, hereinafter referred to as “nonamidated form”), with the peptide […], in which the C-terminal function of the carboxy-terminal citrullyl residue is amidated (form carrying a terminal CONH2 function, hereinafter referred to as “amidated form”) and the noncitrullinated peptide β60-74 (in which the C-terminal function of the carboxy-terminal arginyl residue is not amidated), all diluted in PBS. The serum mixtures A and B described in Example 1 were tested according to the method described in Example 2. As in Example 2, the specific reactivity of the peptide in nonamidated form or in amidated form corresponded to the difference between the OD obtained with these two citrullinated peptides and that obtained with the noncitrullinated peptide β60-74. […] The results correspond to the mean of two experiments, each comprising two determinations.

On to “β60-74Cit60,72,74: citrullinated synthetic peptide, fibrin β-chain residues 60-74, C-terminal citrullyl amidated; fits SEQ ID NO: 1 X1PAPPPISGGGYX2AX3 (XPAPPPISGGGYXAX; HELM PEPTIDE1{[Cit].P.A.P.P.P.I.S.G.G.G.Y.[Cit].A.[Cit].[am]}$$$$V2.0; N-terminus assumed; SMILES CC[C@H](C)[C@H](NC(=O)[C@@H]1CCCN1C(=O)[C@@H]1CCCN1C(=O)[C@@H]1CCCN1C(=O)[C@H](C)NC(=O)[C@@H]1CCCN1C(=O)[C@@H](N)CCCNC(N)=O)C(=O)N[C@@H](CO)C(=O)NCC(=O)NCC(=O)NCC(=O)N[C@@H](Cc1ccc(O)cc1)C(=O)N[C@@H](CCCNC(N)=O)C(=O)N[C@@H](C)C(=O)N[C@@H](CCCNC(N)=O)C(N)=O)”, for which the “Number of positive sera” value in assay [1] (sera with delta OD not <0.25 out of sera tested (20, or 10 of mixture A only)) is 14/20. Besides, the “delta OD” value was 3.48 in assay [1] (serum 95.0256, dilution 1/35); 0.31 in assay [1] (serum 97.0169, dilution 1/400); 1.23 in assay [1] (serum 97.0244, dilution 1/2700); 1.93 in assay [1] (serum 97.0311, dilution 1/200); 1.73 in assay [1] (serum 97.0323, dilution 1/120); 0.71^c in assay [1] (serum 97.0459, dilution 1/60). The “delta OD” value in assay [1] (serum 97.0468, dilution 1/700) came to 1.08; in assay [1] (serum 97.0506, dilution 1/75), 1.93; in assay [1] (serum 97.0794, dilution 1/50), 0.75; in assay [1] (serum 97.0796, dilution 1/500), 0.36; in assay [1] (serum 97.0907, dilution 1/300) it was 1.17; in assay [1] (serum 97.1210, dilution 1/300) it was 3.33. Moreover, the “delta OD” value in assay [1] (serum 97.1474, dilution 1/20) stood at 0.37; in assay [1] (serum 97.1548, dilution 1/60), 1.48; in assay [3] (Mixture A) it was 2.13; in assay [3] (Mixture B) it was 2.74. In addition, the “delta OD (citrullinated minus native peptide, 492 nm)” value in assay [2] (Mixture A of sera 1/50, coating buffer PBS pH 7.4) is reported as 2.06; in assay [2] (Mixture A of sera 1/50, coating buffer acetate pH 5.0), 1.02; in assay [2] (Mixture A of sera 1/50, coating buffer carbonate pH 9.0) it was 1.27; in assay [2] (Mixture B of sera 1/50, coating buffer PBS pH 7.4), 2.69; in assay [2] (Mixture B of sera 1/50, coating buffer acetate pH 5.0), 2.83; in assay [2] (Mixture B of sera 1/50, coating buffer carbonate pH 9.0) it was 2.72. Moreover, in assay [3] (serum mixtures A and B, PBS coating), the “reactivity of amidated versus nonamidated form” value is given as “clearly greater than that of the nonamidated form”.

For the origin of these results see US9249208B2, “Citrulline peptides derived from fibrin and recognized by rheumatoid arthritis specific autoantibodies, and the use thereof” (Biomerieux, priority 2004, dated 2016).
